Literature values in article PMC11860437, “Gold Nanoparticles as a Platform for Delivery of Immunogenic Peptides to THP-1 Derived Macrophages: Insights into Nanotoxicity” (Vaccines, 2025).

Legend:
[1] = test system: K562 human erythroleukemia cells
From the text: (§1) The cytotoxicity of p-Au68 was particularly high when conjugated with peptides p2 (~30–50% cell death) and p4 (~40–60% cell death). […] These peptides differ from each other by the presence of the arginine-rich TAT peptide (YGRKKRRQRRR). It is noteworthy that pTAT-functionalized NPs are considered a promising approach to overcome ...

HeLa, A549, and CHO = conditions: three cell lines (HeLa, A549, and CHO)
From the text: as §1

For YGRKKRRQRRR [pTAT], the membrane toxicity [1] is given as “completely innocuous” and the toxicity (HeLa, A549, and CHO) is given as “low toxicity”.
